Series [1] in a line: Pharmacokinetics in mini-pigs after i.v. administration. The note with it: female, Göttingen, minipig, iv, 5 nmol/kg. The text has this:
The aim of the study is to assess the pharmacokinetic properties of the compounds of the invention, in mini-pigs.
Göttingen mini-pigs female, 15-20 kg, purchased from Ellegaard Mini-pigs, Denmark, were housed in the Animal Unit, Novo Nordisk A/S and were kept and handled according to normal procedure in the Animal Unit. After minimum 2 weeks of acclimatization two permanent central venous catheters were implemented in vena cava caudalis in each animal. After surgery the animals were in their normal individual pens during the pharmacokinetic experiments.
Intravenous injections were given through the central short catheter, which was flushed with min 10 ml of sterile saline post administration. The test substance was dosed at 5 nmol/kg, N=3, in a volume of 0.05 ml/kg.
On day 1 the catheters are coupled to extension tubes, which will be removed at the end of day 1.
Samples were kept on wet ice until centrifugation (10 min, 4° C., 1942 g). Afterwards, plasma (min. 100 μl) was transferred immediately to Micronic tubes and kept at −20° C. until analysis. The plasma samples were analysed by an immunoaasay described below.
The plasma concentrations of the peptides with intact N-terminus were determined using a Luminescence Oxygen Chanelling Immuno-assay (LOCI). The donor beads were coated with streptavidin, while acceptor beads were conjugated with a monoclonal antibody recognizing a mid-/C-terminal epitope of the peptide. The other monoclonal antibody, specific for the N-terminus, was biotinylated. The three reactants were combined with the analyte and formed a two-sited immuno-complex. Illumination of the complex released singlet oxygen atoms from the donor beads, which were channeled into the acceptor beads and triggered chemi-luminescence which was measured in an Envision plate reader. The amount of light was proportional to the concentration of the compound.
Plasma concentration-time profiles was analysed by a non-compartmental pharmacokinetics analysis using Phoenix (Pharsight Inc., Mountain View, Calif., USA). Calculations were performed using individual concentration-time values from each animal.

Series [2] relates to Mouse monocyte/macrophage cell line, RAW 264.7. Put plainly: Cholesterol efflux assay (3H-cholesterol, macrophage cell line). The series is classed as cell-based. The note with it: RAW 264.7, 4 hrs incubation, 0.1% human serum albumin; for 4 h Cholesterol Efflux Emax: ABCA1-mediated efflux; for EC50: read-out: 4 h Cholesterol Efflux EC50, ABCA1-mediated efflux (CPT-cAMP induced minus non-induced).

The target of the next series is human GLP-1 receptor (Homo sapiens, UniProt P43220). In words: Functional GLP-1 receptor assay, in vitro potency (CRE luciferase; whole cells). The note with it: BHK cells expressing human GLP-1 receptor. The series is classed as cell-based.
The mark [3] stands for this setting: plasma, T1/2 Mean Value, Göttingen mini-pigs, N=3.
Setting [4] is: 0% HSA, read-out: GLP1R CRE luc 0% HSA EC50 Mean Value.
Setting [5] is: GLP1R CRE luc 1% HSA EC50 Mean Value, 1% HSA.

Read-outs that look alike come from different tables or passages of the source. Where a SMILES comes first, the peptide text is derived from it. Where no end group is shown, it is not given here. [ ]: non-standard residue; d: D form. Aib = CC(C)(N)C(=O)O

As a reminder, the Vd is a proportionality between amount in the body and measured concentration, not a real space. By clearance is commonly meant a measure of how efficiently the substance is removed, as volume per time. The term half-life denotes how long it takes for the measured level to halve. High values mean slow decline, low ones rapid decline. In general, EC50 refers to the midpoint of the concentration-response curve.

human GLP-1 receptor, sequence (P43220 24-463): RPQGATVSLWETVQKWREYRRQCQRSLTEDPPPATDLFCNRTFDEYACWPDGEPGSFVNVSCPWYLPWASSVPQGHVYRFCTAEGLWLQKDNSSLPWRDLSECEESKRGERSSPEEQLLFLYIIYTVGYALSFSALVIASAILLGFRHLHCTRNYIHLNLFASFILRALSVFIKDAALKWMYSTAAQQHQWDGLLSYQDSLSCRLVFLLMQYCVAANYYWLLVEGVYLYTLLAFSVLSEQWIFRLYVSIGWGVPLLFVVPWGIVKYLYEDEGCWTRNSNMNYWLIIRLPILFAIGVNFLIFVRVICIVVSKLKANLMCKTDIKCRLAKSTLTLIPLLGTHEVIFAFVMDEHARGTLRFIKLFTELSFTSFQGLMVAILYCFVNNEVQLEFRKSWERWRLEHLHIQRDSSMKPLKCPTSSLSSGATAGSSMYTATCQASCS

As to “HAEGTFTSDVSSYLEGEAVKEFIAWLVEKVKEFL-NH2 [Compound 67, [Glu23,Val25,Glu34,Lys35,Val36,Lys37]-GLP-1-(7-37)-peptidyl-Glu-Phe-Leu amide]”, in series [1] (plasma), the C0 was 163 nM, the distribution volume (Vd) stood at 0.056 L/kg and the clearance is 1.17 mL/h/kg. This compound also gave a half-life in series [1] (setting [3]) of 33 h.
In the case of `CC[C@H](C)[C@H](NC(=O)[C@H](Cc1ccccc1)NC(=O)[C@H](CCC(=O)O)NC(=O)[C@H](CCCCN)NC(=O)[C@@H](NC(=O)[C@H](C)NC(=O)[C@H](CCC(=O)O)NC(=O)CNC(=O)[C@H](CCC(=O)O)NC(=O)[C@H](CC(C)C)NC(=O)[C@H](Cc1ccc(O)cc1)NC(=O)[C@H](CO)NC(=O)[C@H](CO)NC(=O)[C@@H](NC(=O)[C@H](CC(=O)O)NC(=O)[C@H](CO)NC(=O)[C@@H](NC(=O)[C@H](Cc1ccccc1)NC(=O)[C@@H](NC(=O)CNC(=O)[C@H](CCC(=O)O)NC(=O)C(C)(C)NC(=O)[C@@H](N)Cc1c[nH]cn1)[C@@H](C)O)[C@@H](C)O)C(C)C)C(C)C)C(=O)N[C@@H](C)C(=O)N[C@@H](Cc1c[nH]c2ccccc12)C(=O)N[C@@H](CC(C)C)C(=O)N[C@H](C(=O)N[C@@H](CCC(=O)O)C(=O)N[C@@H](CCCCN)C(=O)NC(C)(C)C(=O)N[C@@H](CCCCN)C(=O)N[C@@H](CCC(=O)O)C(=O)N[C@@H](Cc1ccccc1)C(=O)N[C@@H](CC(C)C)C(=O)O)C(C)C` [Compound 16, [Aib8,Glu23,Val25,Glu34,Lys35,Aib36,Lys37]-GLP-1-(7-37)-peptidyl-Glu-Phe-Leu], in series [2], the “4 h Cholesterol Efflux Emax” value was 105% and the EC50 stood at 680 nM. In series [1] (in vivo), this compound had a C0 of 123 nM, a distribution volume (Vd) of 0.0889 L/kg, a clearance of 1.44 mL/h/kg and a half-life of 42.8 h.
As for `CC[C@H](C)[C@H](NC(=O)[C@H](Cc1ccccc1)NC(=O)[C@H](CCC(=O)O)NC(=O)[C@H](CCCCN)NC(=O)[C@@H](NC(=O)[C@H](C)NC(=O)[C@H](CCC(=O)O)NC(=O)CNC(=O)[C@H](CCC(=O)O)NC(=O)[C@H](CC(C)C)NC(=O)[C@H](Cc1ccc(O)cc1)NC(=O)[C@H](CO)NC(=O)[C@H](CO)NC(=O)[C@@H](NC(=O)[C@H](CC(=O)O)NC(=O)[C@H](CO)NC(=O)[C@@H](NC(=O)[C@H](Cc1ccccc1)NC(=O)[C@@H](NC(=O)CNC(=O)[C@H](CCC(=O)O)NC(=O)C(C)(C)NC(=O)[C@@H](N)Cc1c[nH]cn1)[C@@H](C)O)[C@@H](C)O)C(C)C)C(C)C)C(=O)N[C@@H](C)C(=O)N[C@@H](Cc1c[nH]c2ccccc12)C(=O)N[C@@H](CC(C)C)C(=O)N[C@H](C(=O)N[C@@H](CCC(=O)O)C(=O)N[C@@H](CCCCN)C(=O)NC(C)(C)C(=O)N[C@@H](CCCCN)C(=O)N[C@@H](CCC(=O)O)C(=O)N[C@@H](Cc1ccccc1)C(=O)N[C@@H](CC(C)C)C(=O)N[C@@H](CCC(=O)O)C(=O)N[C@@H](CCCCN)C(=O)O)C(C)C` [Compound 99, [Aib8,Glu23,Val25,Glu34,Lys35,Aib36,Lys37]-GLP-1-(7-37)-peptidyl-Glu-Phe-Leu-Glu-Lys], in series [2], the “4 h Cholesterol Efflux Emax” value is given as 99% and the concentration for a half-maximal effect (EC50) turned out to be 290 nM. In series [1] (in vivo), the C0 turned out to be 95.8 nM, the Vd came to 0.0921 L/kg, the clearance is 1.2 mL/h/kg and the half-life is 53.2 h.
Turning to “HAEGTFTSDVSSYLEGQAAKEFIAWLVEKVKEHL-NH2 [Compound 107, [Glu34,Lys35,Val36,Lys37]-GLP-1-(7-37)-peptidyl-Glu-His-Leu amide]”, the EC50 at human GLP-1 receptor (setting [4]) came out at 0.04 nM. On human GLP-1 receptor (setting [5]), this compound registered a 50% effective concentration (EC50) of 0.01 nM. Further, in series [1] (plasma), the C0 was found to be 59.2 nM, the Vd turned out to be 0.0615 L/kg and the clearance was 8.04 mL/h/kg. In series [1] (setting [3]), this compound had a half-life of 5.4 h.
Consider `CC[C@H](C)[C@H](NC(=O)[C@H](Cc1ccccc1)NC(=O)[C@H](CCC(=O)O)NC(=O)[C@H](CCCCN)NC(=O)[C@@H](NC(=O)[C@H](C)NC(=O)[C@H](CCC(N)=O)NC(=O)CNC(=O)[C@H](CCC(=O)O)NC(=O)[C@H](CC(C)C)NC(=O)[C@H](Cc1ccc(O)cc1)NC(=O)[C@H](CO)NC(=O)[C@H](CO)NC(=O)[C@@H](NC(=O)[C@H](CC(=O)O)NC(=O)[C@H](CO)NC(=O)[C@@H](NC(=O)[C@H](Cc1ccccc1)NC(=O)[C@@H](NC(=O)CNC(=O)[C@H](CCC(=O)O)NC(=O)C(C)(C)NC(=O)[C@@H](N)Cc1c[nH]cn1)[C@@H](C)O)[C@@H](C)O)C(C)C)C(C)C)C(=O)N[C@@H](C)C(=O)N[C@@H](Cc1c[nH]c2ccccc12)C(=O)N[C@@H](CC(C)C)C(=O)N[C@H](C(=O)N[C@@H](CCC(=O)O)C(=O)N[C@@H](CCCCN)C(=O)NC(C)(C)C(=O)N[C@@H](CCCCN)C(=O)N[C@@H](CCC(=O)O)C(=O)N[C@@H](Cc1ccccc1)C(=O)N[C@@H](CC(C)C)C(N)=O)C(C)C` [Compound 7] (H-H[Aib]EGTFTSDVSSYLEGQAVKEFIAWLVEK[Aib]KEFL-NH2), for which the “4 h Cholesterol Efflux Emax” value in series [2] worked out at 90%. In series [1] (plasma), this compound showed a C0 of 51.2 nM, a distribution volume (Vd) of 0.146 L/kg and a clearance of 3.71 mL/h/kg. The compound further showed a half-life in series [1] (plasma, T1/2, mini-pigs) of 27.3 h. The same compound gave a half-life in series [1] (setting [3]) of 27.3 h.
For the compound “HGEGTFTSDVSSYLEGEAVKEFIAWLVEKVKEFL-NH2 [Compound 76, [Gly8,Glu23,Val25,Glu34,Lys35,Val36,Lys37]-GLP-1-(7-37)-peptidyl-Glu-Phe-Leu amide]”, in series [1] (in vivo), the C0 was determined as 136 nM, the Vd was 0.0636 L/kg and the clearance is 1.06 mL/h/kg. In series [1] (in vivo, T1/2 Mean Value), this compound had a half-life of 41.7 h.
For “HGEGTFTSDVSSYLEGEAVKEFIAWLVEKVKEHL-NH2 [Compound 78, [Gly8,Glu23,Val25,Glu34,Lys35,Val36,Lys37]-GLP-1-(7-37)-peptidyl-Glu-His-Leu amide]”, in that order: 58.4 nM, 0.134 L/kg, 4.45 mL/h/kg and 20.6 h.
As for `CC[C@H](C)[C@H](NC(=O)[C@H](Cc1ccccc1)NC(=O)[C@H](CCC(=O)O)NC(=O)[C@H](CCCCN)NC(=O)[C@@H](NC(=O)[C@H](C)NC(=O)[C@H](CCC(=O)O)NC(=O)CNC(=O)[C@H](CCC(=O)O)NC(=O)[C@H](CC(C)C)NC(=O)[C@H](Cc1ccc(O)cc1)NC(=O)[C@H](CO)NC(=O)[C@H](CO)NC(=O)[C@@H](NC(=O)[C@H](CC(=O)O)NC(=O)[C@H](CO)NC(=O)[C@@H](NC(=O)[C@H](Cc1ccccc1)NC(=O)[C@@H](NC(=O)CNC(=O)[C@H](CCC(=O)O)NC(=O)C(C)(C)NC(=O)[C@@H](N)Cc1c[nH]cn1)[C@@H](C)O)[C@@H](C)O)C(C)C)C(C)C)C(=O)N[C@@H](C)C(=O)N[C@@H](Cc1c[nH]c2ccccc12)C(=O)N[C@@H](CC(C)C)C(=O)N[C@H](C(=O)N[C@@H](CCC(=O)O)C(=O)N[C@@H](CCCCN)C(=O)N[C@H](C(=O)N[C@@H](CCCCN)C(=O)N[C@@H](CCC(=O)O)C(=O)N[C@@H](CCCCN)C(N)=O)C(C)C)C(C)C` [Compound 110, [Aib8,Glu23,Val25,Glu34,Lys35,Val36,Lys37]-GLP-1-(7-37)-peptidyl-Glu-Lvs amide] (H-H[Aib]EGTFTSDVSSYLEGEAVKEFIAWLVEKVKEK-NH2), the “4 h Cholesterol Efflux Emax” value in series [2] is 106%. The EC50 was 0.043 nM on human GLP-1 receptor (setting [4]) and 0.014 nM on human GLP-1 receptor (setting [5]).
With `CC[C@H](C)[C@H](NC(=O)[C@H](Cc1ccccc1)NC(=O)[C@H](CCC(=O)O)NC(=O)[C@H](CCCCN)NC(=O)[C@@H](NC(=O)[C@H](C)NC(=O)[C@H](CCC(=O)O)NC(=O)CNC(=O)[C@H](CCC(=O)O)NC(=O)[C@H](CC(C)C)NC(=O)[C@H](Cc1ccc(O)cc1)NC(=O)[C@H](CO)NC(=O)[C@H](CO)NC(=O)[C@@H](NC(=O)[C@H](CC(=O)O)NC(=O)[C@H](CO)NC(=O)[C@@H](NC(=O)[C@H](Cc1ccccc1)NC(=O)[C@@H](NC(=O)CNC(=O)[C@H](CCC(=O)O)NC(=O)C(C)(C)NC(=O)[C@@H](N)Cc1c[nH]cn1)[C@@H](C)O)[C@@H](C)O)C(C)C)C(C)C)C(=O)N[C@@H](C)C(=O)N[C@@H](Cc1c[nH]cn1)C(=O)N[C@@H](CC(C)C)C(=O)N[C@H](C(=O)N[C@@H](CCC(=O)O)C(=O)N[C@@H](CCCCN)C(=O)NC(C)(C)C(=O)N[C@@H](CCCCN)C(=O)N[C@@H](CCC(=O)O)C(=O)N[C@@H](Cc1ccccc1)C(=O)N[C@@H](CC(C)C)C(N)=O)C(C)C` [Compound 17, [Aib8,Glu23,Val25,His31,Glu34,Lys35,Aib36,Lys37]-GLP-1-(7-37)-peptidyl-Glu-Phe-Leu amide] (H-H[Aib]EGTFTSDVSSYLEGEAVKEFIAHLVEK[Aib]KEFL-NH2), the “4 h Cholesterol Efflux Emax” value in series [2] stood at 102%. Also, the EC50 at human GLP-1 receptor (setting [5]) is 0.02 nM.
